Results as given in patent US8993624B2, “Method of preventing and treating inflammatory diseases and disorders with abscisic acid” (Virginia Tech Intellectual Properties, Inc., priority 2010, dated 2015).

System: PPAR γ
Format: cell-based

## CC1=CC(=O)CC(C)(C)C1(O)/C=C/C(C)=C\C(=O)O (single isomer, unassigned; (-)) [(−) ABA]
1.25-10 μM tested, 20 hours
  concentration inducing maximal PPAR γ activation: 2.5 µM
RAW 264.7, 20 hours
  PPAR γ activation (relative luciferase activity): activated PPAR γ to a similar degree
